{"source": "patent US20260293895A1", "about": "“HERBICIDAL DERIVATIVES” (SYNGENTA CROP PROTECTION AG, priority 2023, published 2026)", "assay_type_in_all_cases": "in vivo", "key": {"Zea mays (ZEAMX) [1]": {"system": "Zea mays (ZEAMX)", "experiment": "Pre-emergence test, Zea mays (ZEAMX)", "settings": "250 g/ha, evaluated after 13 days, glasshouse, crop"}, "[2]": {"system": "Amaranthus retoflexus (AMARE)", "experiment": "Post-emergence herbicidal test, Amaranthus retoflexus (AMARE)", "settings": "250 g/ha, sprayed after 8 days cultivation, evaluated after 13 days, glasshouse", "description": "(§1) Seeds of a variety of test species are sown in standard soil in pots (Setaria faberi (SETFA), Echinochloa crus-galli (ECHCG), Amaranthus palmeri (AMAPA), Zea mays (ZEAMX), Amaranthus retoflexus (AMARE),). After 8 days cultivation under controlled conditions in a glasshouse (at 24° C./16° C., day/night; 14 hours light; 65% humidity), the plants are sprayed with an aqueous spray solution derived from the formulation of the technical active ingredient in acetone/water (50:50) solution containing 0.5% Tween 20 (polyoxyethelyene sorbitan monolaurate, CAS RN 9005-64-5). Compounds are applied at 250 g/ha unless otherwise stated. The test plants are then grown in a glasshouse under controlled conditions in a glasshouse (at 24° C./16° C., day/night; 14 hours light; 65% humidity) and watered twice daily. After 13 days the test is evaluated for the percentage damage caused to the plant. The biological activities are shown in the following table on a five-point scale (5=81-100%; 4=61-80%; 3=41-60%; 2=21-40%; 1=1-20%; 0=no activity; -=not tested)."}, "[3]": {"system": "Amaranthus palmeri (AMAPA)", "experiment": "Pre-emergence herbicidal test, Amaranthus palmeri (AMAPA)", "settings": "250 g/ha, evaluated after 13 days, glasshouse"}, "[4]": {"system": "Echinochloa crus-galli (ECHCG)", "experiment": "Post-emergence herbicidal test, Echinochloa crus-galli (ECHCG)", "settings": "250 g/ha, sprayed after 8 days cultivation, evaluated after 13 days, glasshouse", "description": "as §1"}, "[5]": {"system": "Echinochloa crus-galli (ECHCG)", "experiment": "Pre-emergence herbicidal test, Echinochloa crus-galli (ECHCG)", "settings": "250 g/ha, evaluated after 13 days, glasshouse"}, "Setaria faberi (SETFA) [6]": {"system": "Setaria faberi (SETFA)", "experiment": "Pre-emergence herbicidal test, Setaria faberi (SETFA)", "settings": "250 g/ha, evaluated after 13 days, glasshouse"}, "[7]": {"system": "Amaranthus retoflexus (AMARE)", "experiment": "Pre-emergence herbicidal test, Amaranthus retoflexus (AMARE)", "settings": "250 g/ha, evaluated after 13 days, glasshouse"}, "Setaria faberi (SETFA) [8]": {"system": "Setaria faberi (SETFA)", "experiment": "Post-emergence herbicidal test, Setaria faberi (SETFA)", "settings": "250 g/ha, sprayed after 8 days cultivation, evaluated after 13 days, glasshouse", "description": "as §1"}, "Zea mays (ZEAMX) [9]": {"system": "Zea mays (ZEAMX)", "experiment": "Post-emergence test, Zea mays (ZEAMX)", "set-up": "key: 5: 81-100%; 4: 61-80%; 3: 41-60%; 21-40%; 1-20%; 0: no activity; -: not tested", "settings": "250 g/ha, sprayed after 8 days cultivation, evaluated after 13 days, glasshouse, crop", "description": "as §1"}, "[10]": {"system": "Amaranthus palmeri (AMAPA)", "experiment": "Post-emergence herbicidal test, Amaranthus palmeri (AMAPA)", "settings": "250 g/ha, sprayed after 8 days cultivation, evaluated after 13 days, glasshouse", "description": "as §1"}}, "data": [{"smiles": "CCn1c(Cl)cc(=O)c(C(=O)O)c1-c1ccc(Cl)c(Cl)c1", "note": "[Compound 2, 6-chloro-2-(3,4-dichlorophenyl)-1-ethyl-4-oxo-pyridine-3-carboxylic acid]", "values": [{"measurement": "percentage damage caused to the plant, ZEAMX", "setting": "Zea mays (ZEAMX) [1]", "result": "1 (1-20%)"}, {"measurement": "percentage damage caused to the plant, AMARE", "setting": "[2]", "result": "1 (1-20%)"}, {"measurement": "percentage damage caused to the plant, AMAPA", "setting": "[3]", "result": "2 (21-40%)"}, {"measurement": "percentage damage caused to the plant, ECHCG", "setting": "[4]", "result": "3 (41-60%)"}, {"measurement": "percentage damage caused to the plant, ECHCG", "setting": "[5]", "result": "3 (41-60%)"}, {"measurement": "percentage damage caused to the plant, SETFA", "setting": "Setaria faberi (SETFA) [6]", "result": "5 (81-100%)"}, {"measurement": "percentage damage caused to the plant, AMARE", "setting": "[7]", "result": "3 (41-60%)"}, {"measurement": "percentage damage caused to the plant, SETFA", "setting": "Setaria faberi (SETFA) [8]", "result": "4 (61-80%)"}, {"measurement": "percentage damage caused to the plant, ZEAMX", "setting": "Zea mays (ZEAMX) [9]", "result": 0}, {"measurement": "percentage damage caused to the plant, AMAPA", "setting": "[10]", "result": "1 (1-20%)"}]}]}
